Experimental data: US11453703B2, “Heterotandem bicyclic peptide complexes” (BicycleTX Limited, priority 2018, dated 2022)

Legend:
CD137 [1] = molecular target: T1, CD137 (Homo sapiens, UniProt Q07011); test: CD137 Biacore (SPR) binding assay; design: purchased R&D systems; conditions: biotinylated human CD137, 25° C.
Procedure: Biacore experiments were performed to determine ka (M^−1s^−1), kd (s^−1), KD (nM) values of heterotandem peptides binding to human CD137 protein. […] The protein was desalted to remove uncoupled biotin using spin columns into PBS.
For analysis of peptide binding, a Biacore T200 or a Biacore 3000 instrument was used with a XanTec CMD500D chip. Streptavidin was immobilized on the chip using standard amine-coupling chemistry at 25° C. with HBS-N (10 mM HEPES, 0.15 M NaCl, pH 7.4) as the running buffer. Briefly, the carboxymethyl dextran surface was activated with a 7 min injection of a 1:1 ratio of 0.4 M 1-ethyl-3-(3-dimethylaminopropyl) carbodiimide hydrochloride (EDC)/0.1 M N-hydroxy succinimide (NHS) at a flow rate of 10 μl/min. For capture of streptavidin, the protein was diluted to 0.2 mg/ml in 10 mM sodium acetate (pH 4.5) and captured by injecting 120 μl of onto the activated chip surface. Residual activated groups were blocked with a 7 min injection of 1 M ethanolamine (pH 8.5) and biotinylated CD137 captured to a level of 270-1500 RU. Buffer was changed to PBS/0.05% Tween 20 and a dilution series of the peptides was prepared in this buffer with a final DMSO concentration of 0.5%. The top peptide concentration was 500 nM with 6 further 2-fold or 3-fold dilutions. The SPR analysis was run at 25° C. at a flow rate of 90 μl/min with 60 seconds association and 900 seconds dissociation. After each cycle a regeneration step (10 μl of 10 mM glycine pH 2) was employed. Data were corrected for DMSO excluded volume effects as needed. All data were double-referenced for blank injections and reference surface using standard processing procedures and data processing and kinetic fitting were performed using Scrubber software, version 2.0c (BioLogic Software). Data were fitted using simple 1:1 binding model allowing for mass transport effects where appropriate.

[2] = tested on: human PBMC co-cultured with 4T1-D02 (Nectin4+); test: Human PBMC-4T1 co-culture (cytokine release) assay; type: cell-based; conditions: anti-CD3 stimulated PBMC, 48 hours; for EC50: IFN-γ secretion
Procedure: Mouse mammary gland tumor cell line 4T1-1 (4T1-Parental) and murine Nectin-4 overexpressing 4T1 (4T1-D02) were cultured in RPMI1640 supplemented with 10% heat-inactivated Fetal Bovine Serum, 100 I.U/ml Penicillin and 100 I.U/Streptomycin, 20 mM HEPES, 1× Non-Essential Amino Acids, and 2 mM L-Glutamine (RPMI working medium). Frozen PBMCs from healthy human donors were thawed and washed one time in room temperature PBS, and then resuspended in RPMI working medium. For tumor cell and PBMC co-culture, 10000 PBMCs and 2000 tumor cells (5:1) were mixed and plated in each well of a 384 well plate. For stimulating human PBMCs, 125 ng/ml of soluble anti-CD3 mAb (clone OKT3) was added to the culture on day 0. Test, control compounds or vehicle controls were added to respective wells and brought the final volume per well to 100u1. Plates were incubated in a 37° C. cell culture incubator with 5% CO2 for up to three days. Supernatants were collected 48 hours after stimulation, and human IL-2 and IFFγ were detected using HTRF assays. Raw data were analyzed using Excel or Prism software to generate standard curves to interpolate protein concentrations. Data represents one study with three different donor PBMC tested in experimental duplicates.

CD137 [3] = molecular target: T1, CD137; test: CD137 reporter assay, co-culture with Nectin-4 tumour cells; type: cell-based; design: host or cells: Jurkat reporter cells; conditions: for Fold Induction over Background: tumour target Nectin4, co-culture with H1376, 6 h;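 for all read-outs here: jurkat reporter cells co-cultured with tumour cells and test article for 6 h, luminescence signal relative to Jurkat plus tumour cells lacking test article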

T1 sequence (Q07011 24-255): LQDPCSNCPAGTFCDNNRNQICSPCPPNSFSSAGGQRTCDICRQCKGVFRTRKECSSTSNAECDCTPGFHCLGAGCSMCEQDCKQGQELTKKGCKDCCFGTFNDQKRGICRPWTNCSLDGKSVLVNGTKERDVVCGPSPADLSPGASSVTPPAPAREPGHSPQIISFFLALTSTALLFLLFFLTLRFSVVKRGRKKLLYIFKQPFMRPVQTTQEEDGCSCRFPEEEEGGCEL

Compound | Kd (CD137 [1]) [nM] | max IFN-y [2] | fold induction at 0.1 µM (CD137 [3]; read-out: Fold Induction over Background at 100 nM) | EC50 [2] [nM] | EC50 (CD137 [3]) [nM] | Fold Induction over Background (CD137 [3]) [fold]
CCCC[C@@H]1NC(=O)[C@H](Cc2ccc(O)cc2)NC(=O)[C@@H]2CCCN2C(=O)[C@H](CC(=O)O)NC(=O)[C@@H](C)NC(=O)[C@H](Cc2ccccc2)NC(=O)[C@@H]2CSCCC(=O)N3CN(CN(C3)C(=O)CCSC[C@@H](C(=O)N[C@@H](CNC(=O)CCOCCOCCOCCOCCOCCOCCOCCOCCOCCOCCOCCOCCn3cc(CCC(=O)NCCC(=O)N(C)CC(=O)N(C)CC(=O)N(C)CC(=O)N(C)CC(=O)N(C)CC(=O)N(C)CC(=O)N(C)CC(=O)N(C)CC(=O)N(C)CC(=O)N(C)CC(=O)N[C@H]4CSCCC(=O)N5CN6CN(C5)C(=O)CCSC[C@H](NC(=O)[C@@H](CC(=O)O)NC(=O)[C@H](Cc5cccc7ccccc57)NC(=O)[C@@H]5CCCN5C4=O)C(=O)N[C@@H](CCSC)C(=O)N[C@@H](CCCCNC(=N)N)C(=O)N[C@@H](CC(=O)O)C(=O)N[C@@H](Cc4c[nH]c5ccccc45)C(=O)N[C@@H](CO)C(=O)N[C@@H]([C@@H](C)O)C(=O)N4CCC[C@H]4C(=O)N4C[C@H](O)C[C@H]4C(=O)N[C@@H](Cc4c[nH]c5ccccc45)C(=O)N[C@H](C(N)=O)CSCCC6=O)nn3)C(N)=O)NC1=O)C(=O)CCSC[C@H](NC(=O)[C@H](C)NC(C)=O)C(=O)N[C@@H]([C@@H](C)CC)C(=O)N[C@@H](CCC(=O)O)C(=O)N[C@@H](CCC(=O)O)C(=O)NCC(=O)N[C@@H](CCC(N)=O)C(=O)N[C@@H](Cc1ccc(O)cc1)C(=O)N2 [BCY9351] | 3640 | No Activity up to 1 μM | < 2 | – | – | –
CCCC[C@@H]1NC(=O)[C@H](Cc2ccc(O)cc2)NC(=O)[C@@H]2CCCN2C(=O)[C@H](CC(=O)O)NC(=O)[C@H](C)NC(=O)[C@H](Cc2ccccc2)NC(=O)[C@@H]2CSCCC(=O)N3CN(CN(C3)C(=O)CCSC[C@@H](C(=O)N[C@@H](C)C(N)=O)NC1=O)C(=O)CCSC[C@H](NC(C)=O)C(=O)N[C@@H](CC(C)(C)C)C(=O)N1CCC[C@H]1C(=O)N[C@@H](CCCCNC(=O)CCc1cn(CCOCCOCCOCCOCCOCCC(=O)N[C@H]3CSCCC(=O)N4CN5CN(C4)C(=O)CCSC[C@H](NC(=O)[C@@H](CC(=O)O)NC(=O)[C@H](Cc4cccc6ccccc46)NC(=O)[C@@H]4CCCN4C3=O)C(=O)N[C@@H](CCSC)C(=O)N[C@@H](CCCCNC(=N)N)C(=O)N[C@@H](CC(=O)O)C(=O)N[C@@H](Cc3c[nH]c4ccccc34)C(=O)N[C@@H](CO)C(=O)N[C@@H]([C@@H](C)O)C(=O)N3CCC[C@H]3C(=O)N3C[C@H](O)C[C@H]3C(=O)N[C@@H](Cc3c[nH]c4ccccc34)C(=O)N[C@H](C(N)=O)CSCCC5=O)nn1)C(=O)N[C@H](C)C(=O)N1CCC[C@H]1C(=O)N[C@@H](Cc1ccc(O)cc1)C(=O)N2 [BCY10571] | – | 18349 pg/mL | – | 0.44 | 3.5 | 60
CCCC[C@@H]1NC(=O)[C@H](Cc2ccc(O)cc2)NC(=O)[C@@H]2CCCN2C(=O)[C@H](CC(=O)O)NC(=O)[C@H](C)NC(=O)[C@H](Cc2ccccc2)NC(=O)[C@@H]2CSCCC(=O)N3CN(CN(C3)C(=O)CCSC[C@@H](C(=O)N[C@@H](CNC(=O)CCOCCOCCOCCOCCOCCOCCOCCOCCOCCOCCOCCOCCn3cc(CCC(=O)NCCC(=O)N(C)CC(=O)N(C)CC(=O)N(C)CC(=O)N(C)CC(=O)N(C)CC(=O)N(C)CC(=O)N(C)CC(=O)N(C)CC(=O)N(C)CC(=O)N(C)CC(=O)N[C@H]4CSCCC(=O)N5CN6CN(C5)C(=O)CCSC[C@H](NC(=O)[C@@H](CC(=O)O)NC(=O)[C@H](Cc5cccc7ccccc57)NC(=O)[C@@H]5CCCN5C4=O)C(=O)N[C@@H](CCSC)C(=O)N[C@@H](CCCCNC(=N)N)C(=O)N[C@@H](CC(=O)O)C(=O)N[C@@H](Cc4c[nH]c5ccccc45)C(=O)N[C@@H](CO)C(=O)N[C@@H]([C@@H](C)O)C(=O)N4CCC[C@H]4C(=O)N4C[C@H](O)C[C@H]4C(=O)N[C@@H](Cc4c[nH]c5ccccc45)C(=O)N[C@H](C(N)=O)CSCCC6=O)nn3)C(N)=O)NC1=O)C(=O)CCSC[C@H](NC(=O)[C@H](C)NC(C)=O)C(=O)N[C@@H]([C@@H](C)CC)C(=O)N[C@@H](CCC(=O)O)C(=O)N[C@@H](CCC(=O)O)C(=O)NCC(=O)N[C@@H](CCC(N)=O)C(=O)N[C@@H](Cc1ccc(O)cc1)C(=O)N2 [BCY8854] | – | 15962 pg/mL | – | 0.89 | 1.2 | 30
